This is an account of results in patent publication US10292393B2, “Mitigation of alternate bearing” (The Regents of the University of California, priority 2009, dated 2019).

Data set [1] has as its system on-crop ‘Nules’ Clementine mandarin trees. As to the kind of experiment: Trunk injections, spring bloom of on-crop mandarin trees. Particulars: trunk injection 1 g per tree, counted at spring bloom. The data set is classed as in vivo. The text has this: This example describes the mitigation of alternate bearing in ‘Nules’ Clementine mandarin trees achieved via trunk injection of adenosine in a composition containing the auxin transport inhibitor TIBA. On-crop ‘Nules’ Clementine mandarin trees received trunk injections of the following compounds listed in Table 1-1: TIBA (2,3,5-triiodobenzoic acid) (Sigma Chemical); 6-BA (6-benzyladenine) (Sigma Chemical); GA3 (PROGIBB® 40%, Valent BioSciences Corp.); and Ado (9-beta-D-adenosine) (Sigma Chemical, Catalog No. A9251) alone or in combination with TIBA. Each material was supplied at the rate of 1 g per tree dissolved in 50-60 ml distilled water using two plastic syringes per tree at each application time. Application times were timed (1) to stimulate summer shoot growth by overcoming correlative inhibition (July) and (2) to overcome inhibition of spring bud break (January). Thus, trees were treated in July alone or in July and January. There was also a treatment in which the apical three nodes of each shoot were removed to release the lateral buds from the dominance of the apical bud to promote summer vegetative shoot growth. The treatments included untreated on-crop control trees and untreated off-crop control trees. The experimental design was a randomized complete block with 5 individual tree replications per treatment with 13 treatments. For each tree, branches (12 inches long), 3 with fruit and 1 branch without fruit in each of the four tree quadrants, were tagged (off-crop control trees were tagged 3 without fruit and 1 with fruit). At the end of September and December, the number and length of new vegetative shoots were quantified to determine the capacity of treatments to overcome inhibition of buds that produce the summer and fall flush shoots, respectively.

Data set [2] concerns on-crop ‘Hass’ avocado trees. As to the kind of experiment: Trunk injections, spring bloom and yield of on-crop avocado trees. Type of data set: in vivo, ‘Hass’ avocado (Persea americana cv. Hass). Particulars: trunk injection 1 g/tree, Jan; for Floral (with fruit): branches with fruit; for Floral (w/o fruit): branches without fruit; for Fruit yield: putative off-crop following the on-crop; for Determinate floral shoots / Floral shoots / Indeterminate floral shoots: spring bloom. As to the method: This example describes the mitigation of alternate bearing in ‘Hass’ avocado trees achieved via trunk injection of adenosine and plant growth regulators. The following treatments were injected (1 g/tree) in mid-January into the trunk of on-crop ‘Hass’ avocado trees in a commercial orchard in Irvine, Calif.: (1) 9-beta-D-adenosine (Sigma Chemical, Catalog No. A9251); (2) 6-BA (Sigma Chemical); (3) GA3 (PROGIBB® 40%, Valent BioSciences Corp.); (4) TIBA (Sigma Chemical); and (5) TIBA plus adenosine. Each material was supplied at the rate of 1 g per tree dissolved in 50-60 ml distilled water using two plastic syringes per tree. There were five individual tree replicates per treatment, including (6) untreated on-crop control trees. For each tree, branches (12 inches long), 1 with fruit and 1 branch without fruit in each of the four tree quadrants, were tagged.

Data set [3] relates to ‘Fina Sodea’ Clementine mandarin trees.
The test system of data set [4] is mandarins. Particulars: cited from earlier work.
Setting [5] is: 3-year cumulative, 25 mg/L in 250 gallons water per acre, once at maximum peel thickness.
Setting [6] is: 3-year cumulative, jumbo (63.51-69.85 mm).
Setting [7] is: 3-year cumulative, large (57.16-63.50 mm).
Setting [8] is: 3-year cumulative, mammoth (69.86-76.20 mm).
[9] abbreviates: 3-year cumulative, medium (50.81-57.15 mm).
Where [10] appears, read: 3-year cumulative, small (44.45-50.80 mm).

Marks after values point to notes of the source that are not given here.

For `Nc1ncnc2c1ncn2[C@@H]1O[C@H](CO)[C@@H](O)[C@H]1O` [Ado, 9-beta-D-adenosine], in data set [1] (Jul + Jan), the “Floral on Spring shoots” value is listed as 5 bc No. of shoots per 100 nodes, the “Floral on Summer-Fall shoots” value is 16 No. of shoots per 100 nodes, the Floral shoots is 12 No. of shoots per 100 nodes and the “Leafless Floral shoots” value is reported as 0 No. of shoots per 100 nodes. In data set [1] (Jul + Jan), the “Leafy Floral shoots” value is 12 No. of shoots per 100 nodes. Also, in data set [1] (July), the “Floral on Spring shoots” value is recorded as 2 bc No. of shoots per 100 nodes, the “Floral on Summer-Fall shoots” value is on record as 14 No. of shoots per 100 nodes, the Floral shoots is given as 10 No. of shoots per 100 nodes and the “Leafless Floral shoots” value is 2 No. of shoots per 100 nodes. The “Leafy Floral shoots” value in data set [1] (July) is listed as 8 No. of shoots per 100 nodes. In addition, in data set [2], the “Floral (with fruit)” value is 8 No. of shoots per 100 nodes, the “Floral (w/o fruit)” value is given as 10 No. of shoots per 100 nodes, the Fruit yield was 220 No. per tree and the Determinate floral shoots was 3 ab No. of shoots per 100 nodes. In data set [2], the Floral shoots is recorded as 10 ab No. of shoots per 100 nodes and the Indeterminate floral shoots was 7 No. of shoots per 100 nodes. Besides, in data set [3] (setting [5]), the “Quantity of fruit, Total” value was 1529.3^y fruit no./tree and the “Yield of fruit, Total” value is 126.30^y kg/tree. Further, the “Quantity of fruit, Colossal” value in data set [3] (3-year cumulative, colossal (76.21-82.55 mm)) is 5.64 fruit no./tree. Moreover, in data set [3] (setting [6]), the “Quantity of fruit, Jumbo” value is 128.25 a fruit no./tree and the “Yield of fruit, Jumbo” value is 15.42 a kg/tree. In addition, in data set [3] (setting [7]), the “Quantity of fruit, Large” value is recorded as 360.93 a fruit no./tree and the “Yield of fruit, Large” value was 34.67 a kg/tree. In addition, in data set [3] (setting [8]), the “Quantity of fruit, Mammoth” value was 22.89 fruit no./tree and the “Yield of fruit, Mammoth” value was found to be 3.52 kg/tree. In data set [3] (setting [9]), the “Quantity of fruit, Medium” value turned out to be 497.05 fruit no./tree and the “Yield of fruit, Medium” value is listed as 37.00 kg/tree. For the same compound, the “Yield of fruit, Colossal” value in data set [3] (3-year cumulative, packing carton size colossal (76.21-82.55 mm)) turned out to be 1.04 kg/tree. Moreover, in data set [3] (setting [10]), the “Quantity of fruit, Small” value worked out at 417.12 fruit no./tree and the “Yield of fruit, Small” value was found to be 23.58 kg/tree. Further, the “Quantity of fruit, Ma + J + L” value in data set [3] (3-year cumulative, sum of mammoth, jumbo and large) came out at 512.07 a fruit no./tree. For the same compound, the “Yield of fruit, Ma + J + L” value in data set [3] (3-year cumulative, sum of mammoth, jumbo and large (57.16-76.20 mm)) amounted to 53.60 kg/tree. For the same compound, in data set [3] (in vivo), the “Effects on mandarin fruit quality” value is “did not have negative effects”. Besides, the “Net increase in total yield” value in data set [3] (versus control, numerical (non-significant)) is reported as 6,799 lbs fruit/200 trees/acre. Moreover, in data set [3] (versus control, statistically significant), the “Net increase in 3-year cumulative yield of commercially valuable large fruit (57.16-76.20 mm in diameter)” value is 4,735 lbs/200 trees/acre.
`C=C1C[C@]23C[C@@]1(O)CC[C@H]2[C@@]12C=C[C@H](O)[C@@](C)(C(=O)O1)[C@H]2[C@@H]3C(=O)O` [GA3, gibberellic acid]: in data set [1] (Jul + Jan), the “Floral on Spring shoots” value is listed as 0 c No. of shoots per 100 nodes, the “Floral on Summer-Fall shoots” value is reported as 2 No. of shoots per 100 nodes, the Floral shoots is reported as 1 No. of shoots per 100 nodes and the “Leafless Floral shoots” value is listed as 0 No. of shoots per 100 nodes. Moreover, in data set [1] (Jul + Jan), the “Leafy Floral shoots” value is 1 No. of shoots per 100 nodes. Further, in data set [1] (July), the “Floral on Spring shoots” value is recorded as 0 c No. of shoots per 100 nodes, the “Floral on Summer-Fall shoots” value is on record as 4 No. of shoots per 100 nodes, the Floral shoots is given as 3 No. of shoots per 100 nodes and the “Leafless Floral shoots” value is given as 0 No. of shoots per 100 nodes. The “Leafy Floral shoots” value in data set [1] (July) is 3 No. of shoots per 100 nodes. For the same compound, in data set [2], the “Floral (with fruit)” value is 6 No. of shoots per 100 nodes, the “Floral (w/o fruit)” value is on record as 8 No. of shoots per 100 nodes, the Fruit yield is listed as 194 No. per tree and the Determinate floral shoots is 2 b No. of shoots per 100 nodes. In data set [2], the Floral shoots is reported as 7 b No. of shoots per 100 nodes and the Indeterminate floral shoots is 6 No. of shoots per 100 nodes. Further, in data set [4] (light crop year (approximately 550 fruit per tree), four applications from 60% bloom, 15 or 25 mg GA3/L), the “Effect on total number of fruit per tree” value was “successfully increase the total number of fruit per tree”. Further, the “Effect on total yield and yield of large size fruit” value in data set [4] (on-crop years (approximately 1200 fruit per tree)) is “either reduced both total yield and yield of commercially valuable large size fruit (packing carton sizes large, jumbo and mammoth) or had no effect”.
In the case of `O=C(O)c1cc(I)cc(I)c1I` [TIBA, 2,3,5-triiodobenzoic acid], in data set [1] (Jul + Jan), the “Floral on Spring shoots” value was 5 bc No. of shoots per 100 nodes, the “Floral on Summer-Fall shoots” value was 26 No. of shoots per 100 nodes, the Floral shoots was 18 No. of shoots per 100 nodes and the “Leafless Floral shoots” value was 3 No. of shoots per 100 nodes. In data set [1] (Jul + Jan), the “Leafy Floral shoots” value is 15 No. of shoots per 100 nodes. Besides, in data set [1] (July), the “Floral on Spring shoots” value is 3 bc No. of shoots per 100 nodes, the “Floral on Summer-Fall shoots” value is recorded as 27 No. of shoots per 100 nodes, the Floral shoots is on record as 19 No. of shoots per 100 nodes and the “Leafless Floral shoots” value was 5 No. of shoots per 100 nodes. Besides, the “Leafy Floral shoots” value in data set [1] (July) was 13 No. of shoots per 100 nodes. Moreover, in data set [2], the “Floral (with fruit)” value was 11 No. of shoots per 100 nodes, the “Floral (w/o fruit)” value is 8 No. of shoots per 100 nodes, the Fruit yield worked out at 478 No. per tree and the Determinate floral shoots is on record as 1 b No. of shoots per 100 nodes. Moreover, in data set [2], the Floral shoots was 9 b No. of shoots per 100 nodes and the Indeterminate floral shoots is reported as 8 No. of shoots per 100 nodes.
